Measurements published in BigSolDB 2.1.

O=C(O)c1ccccc1Nc1ccccc1
solubility (mole fraction)
Conditions	in acetone	in acetonitrile	in ethanol	in ethyl acetate	in isopropanol	in methanol	in n-butanol	in n-propanol	in toluene
283.15 K	0.019	0.00147	0.00703	0.012	0.00593	0.00331	0.00849	0.00734	0.00238
285.65 K	0.0202	0.00171	0.00768	0.0133	0.00692	0.00381	0.00972	0.00831	0.00275
288.15 K	0.0223	0.00197	0.00854	0.0156	0.00805	0.00439	0.0112	0.00975	0.00321
290.65 K	0.0252	0.00228	0.00958	0.0182	0.00933	0.00521	0.013	0.0114	0.00374
293.15 K	0.0279	0.00268	0.0112	0.0213	0.0107	0.0061	0.0147	0.0132	0.00439
295.65 K	0.0304	0.00311	0.013	0.0235	0.0124	0.00723	0.0167	0.0152	0.00502
298.15 K	0.0335	0.00373	0.0152	0.0267	0.0144	0.00825	0.0187	0.0172	0.00573
300.65 K	0.0361	0.00425	0.0171	0.0301	0.0164	0.00944	0.0209	0.0194	0.00648
303.15 K	0.0399	0.00491	0.0196	0.034	0.0184	0.0106	0.0233	0.0216	0.00742
305.65 K	0.0427	0.00556	0.0219	0.0373	0.0208	0.0119	0.0256	0.0239	0.00841
308.15 K	0.0465	0.00617	0.0249	0.0414	0.0232	0.0129	0.0283	0.0266	0.0096
310.65 K	0.0499	0.00695	0.0276	0.0458	0.0254	0.0145	0.0311	0.0292	0.0109
313.15 K	0.0537	0.0078	0.0311	0.0503	0.0281	0.0164	0.0338	0.0322	0.0124
315.65 K	0.0582	0.00892	0.0339	0.0555	0.0309	0.0186	0.0367	0.035	0.014
318.15 K	0.063	0.0102	0.0374	0.0604	0.034	0.0212	0.0396	0.0383	0.0155
